Our source for the IC50 values is patent US20240343694A1, “PYRIMIDINE DERIVATIVE, METHOD FOR PREPARING SAME, AND PHARMACEUTICAL COMPOSITION FOR PREVENTING OR TREATING CANCER COMPRISING SAME AS ACTIVE INGREDIENT” (KOREA RESERARCH INSTITUTE OF CHEMICAL TECHNOLOGY, priority 2021, published 2024).

Some results are limits rather than exact numbers.

In one experiment the target is EGFR del19 (Homo sapiens (Human), UniProt P00533, DEL746-750). Briefly: HTRF inhibitory activity against EGFR mutant enzyme (EGFR del19). The settings on record: recombinant enzyme, 37° C. for 2 hours. It is filed as biochemical. Put shortly:
(§1)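 Recombinant EGFR del19 or A763_Y764insFHEA was premixed with compound in 50 mM Tris pH 7.5 with 7.5 mM MgCl2 and 1 mM DTT. ATP (50 mM as printed) and biotin-peptide (0.5 mM) were added and reacted 2 h at 37 °C. The HTRF 665/615 read used streptavidin-XL665 and Eu anti-phosphotyrosine. IC50 was fitted from 7 concentrations.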
Background: In TR-FRET formats the signal depends on donor and acceptor labels being close together.

Another experiment deals with EGFR A763_Y764insFHEA (Homo sapiens (Human), UniProt P00533, INS763FHEA). Briefly: HTRF inhibitory activity against EGFR mutant enzyme (EGFR A763_Y764insFHEA). It is filed as biochemical. As to conditions: recombinant enzyme, 37° C. for 2 hours. Put shortly:
as §1

In the next experiment the target is HER2 A775_G776insYVMA (Homo sapiens (Human), UniProt P04626, INS775YVMA). The experiment is described as follows: HTRF inhibitory activity against HER2 mutant enzyme. It is filed as biochemical. As to conditions: recombinant enzyme, 37° C. for 2 hours. Put shortly:
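Recombinant HER2 A775_G776insYVMA preincubated with compound, then […] and biotinylated peptide ([…]) added; 2 h at 37 °C in Tris-HCl pH 7.5 buffer with MgCl2, DTT. HTRF detection (Eu anti-phosphotyrosine/streptavidin-XL665); IC50 from 7 concentrations.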

For experiment [1], the system named is Ba/F3 EGFR D770_N771insSVD. Briefly: Growth inhibition of Ba/F3 EGFR mutant cells (CellTiter-Glo). It is filed as cell-based. As to conditions: Ba/F3 EGFR-D770-N771ins_SVD, 72 hours. Summed up:
(§2)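 Ba/F3 cells expressing either EGFR insertion mutant were seeded at 1,000 cells/well and dosed 24 h later at eight concentrations from 0 to 10 μM. After 72 h, viability was read by CellTiter-Glo ATP signal. IC50 (μM) was fitted from the eight-point curves.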
In general terms: In ATP-based viability assays light output follows the ATP content of the culture.

Experiment [2] has as its system Ba/F3 EGFR V769_D770insASV. The experiment is described as above. It is filed as cell-based. As to conditions: 72 hours. Put shortly:
as §2

For experiment [3], the system named is Ba/F3 HER2 A775_G776insYVMA. The experiment is described as follows: Growth inhibition of Ba/F3 HER2 mutant cells (CellTiter-Glo). It is filed as cell-based. The settings on record: Mus musculus, BaF3, 72 hours. Summed up:
(§3)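 Ba/F3 cells carrying HER2 A775_G776insYVMA or G776delinsVC were seeded at 1,000 cells/well and dosed 24 h later at 0.01-10 μM (8 concentrations including 0). After 72 h, viability was read as cellular ATP by CellTiter-Glo luminescence, and IC50 values were calculated from the 8-point curves.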

A further experiment relates to Ba/F3 HER2 G776delinsVC. The experiment is described as above. It is filed as cell-based. As to conditions: Mus musculus, BaF3, 72 hours. Summed up:
as §3

Chain of EGFR del19 (P00533 other isoform, or with tags, fused parts or gaps del 1-668/del 746-750 limits assumed): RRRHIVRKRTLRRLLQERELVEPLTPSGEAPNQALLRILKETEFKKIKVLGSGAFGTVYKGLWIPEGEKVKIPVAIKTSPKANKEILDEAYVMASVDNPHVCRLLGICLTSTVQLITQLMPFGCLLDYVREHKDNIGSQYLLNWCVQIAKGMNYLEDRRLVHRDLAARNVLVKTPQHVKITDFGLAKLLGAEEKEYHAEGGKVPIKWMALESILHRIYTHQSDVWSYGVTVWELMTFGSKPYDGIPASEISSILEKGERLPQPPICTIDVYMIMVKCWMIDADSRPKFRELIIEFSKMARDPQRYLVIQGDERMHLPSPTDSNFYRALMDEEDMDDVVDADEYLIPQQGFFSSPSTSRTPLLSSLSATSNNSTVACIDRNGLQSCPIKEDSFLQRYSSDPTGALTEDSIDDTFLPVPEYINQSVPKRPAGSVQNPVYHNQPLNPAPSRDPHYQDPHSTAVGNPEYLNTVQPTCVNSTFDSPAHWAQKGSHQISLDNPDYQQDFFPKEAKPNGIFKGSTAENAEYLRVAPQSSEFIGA
Chain of EGFR A763_Y764insFHEA (P00533 other isoform, or with tags, fused parts or gaps del 1-694/ins FHEA behind 763 limits assumed): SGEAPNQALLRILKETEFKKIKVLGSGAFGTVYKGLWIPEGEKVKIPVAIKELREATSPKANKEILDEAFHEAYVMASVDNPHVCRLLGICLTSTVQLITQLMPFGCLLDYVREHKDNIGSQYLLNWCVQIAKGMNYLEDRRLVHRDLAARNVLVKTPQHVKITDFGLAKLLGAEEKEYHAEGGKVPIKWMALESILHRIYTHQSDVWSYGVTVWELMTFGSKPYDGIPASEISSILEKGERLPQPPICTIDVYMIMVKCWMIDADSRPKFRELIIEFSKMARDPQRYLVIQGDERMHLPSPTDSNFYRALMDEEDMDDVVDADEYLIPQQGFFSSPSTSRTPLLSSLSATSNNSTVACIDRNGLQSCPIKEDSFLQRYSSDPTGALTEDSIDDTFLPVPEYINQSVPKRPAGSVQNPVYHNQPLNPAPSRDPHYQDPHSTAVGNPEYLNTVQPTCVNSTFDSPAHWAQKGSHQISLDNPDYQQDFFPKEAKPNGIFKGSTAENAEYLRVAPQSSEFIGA
Chain of HER2 A775_G776insYVMA (P04626 other isoform, or with tags, fused parts or gaps del 1-675/ins YVMA behind 775 limits assumed): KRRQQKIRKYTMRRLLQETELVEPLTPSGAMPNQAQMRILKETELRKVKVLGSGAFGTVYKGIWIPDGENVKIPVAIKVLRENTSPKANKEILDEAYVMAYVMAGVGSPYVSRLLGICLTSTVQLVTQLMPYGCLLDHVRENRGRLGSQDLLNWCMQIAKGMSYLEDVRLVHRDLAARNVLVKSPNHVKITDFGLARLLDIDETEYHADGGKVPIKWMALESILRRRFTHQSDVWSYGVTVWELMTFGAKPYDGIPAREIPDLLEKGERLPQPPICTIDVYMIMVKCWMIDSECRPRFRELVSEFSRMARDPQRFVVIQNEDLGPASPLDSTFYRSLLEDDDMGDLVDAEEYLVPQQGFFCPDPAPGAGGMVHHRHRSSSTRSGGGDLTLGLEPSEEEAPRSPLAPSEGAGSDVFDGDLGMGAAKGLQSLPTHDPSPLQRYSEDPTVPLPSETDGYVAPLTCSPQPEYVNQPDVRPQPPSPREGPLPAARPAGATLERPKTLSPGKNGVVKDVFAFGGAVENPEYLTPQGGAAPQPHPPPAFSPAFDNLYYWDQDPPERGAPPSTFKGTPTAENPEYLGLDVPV

What is called IC50 is the concentration at which inhibition is half-maximal. On to `C=CC(=O)Nc1cc(Nc2ncc(Cl)c(Nc3cccc(C)c3NS(C)(=O)=O)n2)c(OC)cc1N(C)CCN(C)C` [Example 36, N-(5-((5-chloro-4-((3-methyl-2-(methylsulfonamido)phenyl)amino)pyrimidin-2-yl)amino)-2-((2-(dimethylamino)ethyl)(methyl)amino)-4-methoxyphenyl)acrylamide], for which the IC50 on EGFR del19 is below 1 nM; at EGFR A763_Y764insFHEA it was 1 nM; at HER2 A775_G776insYVMA it was 10 nM; in experiment [1], 10 to 30 nM; in experiment [2] it was 10 to 30 nM; in experiment [3], 50 to 100 nM. In the experiment with Ba/F3 HER2 G776delinsVC, the half-maximal inhibitory concentration (IC50) fell in the range of 10 to 30 nM.

As for `C=CC(=O)Nc1cc(Nc2ncc(Cl)c(Nc3cccc(C(C)C)c3N(C)S(C)(=O)=O)n2)c(OC)cc1N(C)CCN(C)C` [Example 37, N-(5-((5-chloro-4-((3-isopropyl-2-(N-methylmethylsulfonamido)phenyl)amino)pyrimidin-2-yl)amino)-2-((2-(dimethylamino)ethyl)(methyl)amino)-4-methoxyphenyl)acrylamide], the half-maximal inhibitory concentration (IC50) on EGFR del19 is below 1 nM; on EGFR A763_Y764insFHEA it was 2 nM; on HER2 A775_G776insYVMA, 26 nM; in experiment [1] it was 50 to 100 nM; in experiment [2] it was 50 to 100 nM; in experiment [3], 50 to 100 nM. In the experiment on Ba/F3 HER2 G776delinsVC, this molecule had a 50% inhibitory concentration (IC50) of 30 to 50 nM.

With `C=CC(=O)Nc1cc(Nc2ncc(Cl)c(Nc3cccc(C)c3N(C)S(C)(=O)=O)n2)c(OC)cc1N(C)CCN(C)C` [Example 38, N-(5-((5-chloro-4-((3-methyl-2-(N-methylmethylsulfonamido)phenyl)amino)pyrimidin-2-yl)amino)-2-((2-(dimethylamino)ethyl)(methyl)amino)-4-methoxyphenyl)acrylamide], the IC50 at EGFR del19 was below 1 nM; on EGFR A763_Y764insFHEA, 2 nM; on HER2 A775_G776insYVMA, 14 nM; in experiment [1], 30 to 50 nM; in experiment [2], 30 to 50 nM; in experiment [3], 30 to 50 nM. Further, the 50% inhibitory concentration (IC50) in the experiment with Ba/F3 HER2 G776delinsVC is below 10 nM.

Regarding `C=CC(=O)Nc1cc(Nc2ncc(Cl)c(Nc3cccc(C)c3N(CC)S(C)(=O)=O)n2)c(OC)cc1N(C)CCN(C)C` [Example 39, N-(5-((5-chloro-4-((2-(N-ethylmethylsulfonamido)-3-methylphenyl)amino)pyrimidin-2-yl)amino)-2-((2-(dimethylamino)ethyl)(methyl)amino)-4-methoxyphenyl)acrylamide], the IC50 is below 1 nM on EGFR del19; below 1 nM at EGFR A763_Y764insFHEA; 8 nM at HER2 A775_G776insYVMA; 30 to 50 nM in experiment [1]; below 10 nM in experiment [2]; 30 to 50 nM in experiment [3]. Besides, the concentration for half-maximal inhibition (IC50) in the experiment on Ba/F3 HER2 G776delinsVC is below 10 nM.

Turning to `C=CC(=O)Nc1cc(Nc2ncc(Cl)c(Nc3cccc(CC)c3NS(C)(=O)=O)n2)c(OC)cc1N(C)CCN(C)C` [Example 40, N-(5-((5-chloro-4-((3-ethyl-2-(methylsulfonamido)phenyl)amino)pyrimidin-2-yl)amino)-2-((2-(dimethylamino)ethyl)(methyl)amino)-4-methoxyphenyl)acrylamide], the concentration for half-maximal inhibition (IC50) on EGFR del19 was below 1 nM; at EGFR A763_Y764insFHEA, 1 nM; on HER2 A775_G776insYVMA, 4 nM; in experiment [1], 30 to 50 nM; in experiment [2] it was 30 to 50 nM; in experiment [3], 30 to 50 nM. In the experiment with Ba/F3 HER2 G776delinsVC, the IC50 was below 10 nM.

`C=CC(=O)Nc1cc(Nc2ncc(Cl)c(Nc3cccc(CC)c3N(C)S(C)(=O)=O)n2)c(OC)cc1N(C)CCN(C)C` [Example 41, N-(5-((5-chloro-4-((3-ethyl-2-(N-methylmethylsulfonamido)phenyl)amino)pyrimidin-2-yl)amino)-2-((2-(dimethylamino)ethyl)(methyl)amino)-4-methoxyphenyl)acrylamide]: the 50% inhibitory concentration (IC50) on EGFR del19 was below 1 nM; on EGFR A763_Y764insFHEA it was 1 nM; at HER2 A775_G776insYVMA it was 9 nM; in experiment [1], 30 to 50 nM; in experiment [2], 30 to 50 nM; in experiment [3], 50 to 100 nM. Also, in the experiment with Ba/F3 HER2 G776delinsVC, the concentration for half-maximal inhibition (IC50) is below 10 nM.

As to `C=CC(=O)Nc1cc(Nc2ncc(Cl)c(Nc3ccc(C)c(C)c3N(C)S(C)(=O)=O)n2)c(OC)cc1N(C)CCN(C)C` [Example 43, N-(5-((5-chloro-4-((3,4-dimethyl-2-(N-methylmethylsulfonamido)phenyl)amino)pyrimidin-2-yl)amino)-2-((2-(dimethylamino)ethyl)(methyl)amino)-4-methoxyphenyl)acrylamide], the concentration for half-maximal inhibition (IC50) was below 1 nM on EGFR del19; below 1 nM on EGFR A763_Y764insFHEA; 8 nM at HER2 A775_G776insYVMA; 50 to 100 nM in experiment [1]; below 10 nM in experiment [2]; 30 to 50 nM in experiment [3]. Besides, the half-maximal inhibitory concentration (IC50) in the experiment on Ba/F3 HER2 G776delinsVC was below 10 nM.

`C=CC(=O)Nc1cc(Nc2ncc(Cl)c(Nc3ccc(C)cc3N(C)S(C)(=O)=O)n2)c(OC)cc1N(C)CCN(C)C` [Example 45, N-(5-((5-chloro-4-((4-methyl-2-(N-methylmethylsulfonamido)phenyl)amino)pyrimidin-2-yl)amino)-2-((2-(dimethylamino)ethyl)(methyl)amino)-4-methoxyphenyl)acrylamide]: the IC50 at EGFR del19 was below 1 nM; at EGFR A763_Y764insFHEA, below 1 nM; at HER2 A775_G776insYVMA it was 8 nM; in experiment [1], below 10 nM; in experiment [2], below 10 nM; in experiment [3] it was below 10 nM. Besides, the IC50 in the experiment on Ba/F3 HER2 G776delinsVC is below 10 nM.

As for `C=CC(=O)Nc1cc(Nc2ncc(Cl)c(Nc3ccc(C)cc3NS(C)(=O)=O)n2)c(OC)cc1N(C)CCN(C)C` [Example 46, N-(5-((5-chloro-4-((4-methyl-2-(methylsulfonamido)phenyl)amino)pyrimidin-2-yl)amino)-2-((2-(dimethylamino)ethyl)(methyl)amino)-4-methoxyphenyl)acrylamide], the IC50 on EGFR del19 is below 1 nM; at EGFR A763_Y764insFHEA it was below 1 nM; on HER2 A775_G776insYVMA it was 2 nM; in experiment [1], below 10 nM; in experiment [2], 30 to 50 nM; in experiment [3], below 10 nM. The molecule also registered a 50% inhibitory concentration (IC50) in the experiment on Ba/F3 HER2 G776delinsVC of 30 to 50 nM.

As for `C=CC(=O)Nc1cc(Nc2ncc(Cl)c(Nc3cccc4c3N(S(C)(=O)=O)CCC4)n2)c(OC)cc1N(C)CCN(C)C` [Example 47, N-(5-((5-chloro-4-((1-(methylsulfonyl)-1,2,3,4-tetrahydroquinolin-8-yl)amino)pyrimidin-2-yl)amino)-2-((2-(dimethylamino)ethyl)(methyl)amino)-4-methoxyphenyl)acrylamide], the IC50 at EGFR del19 was below 1 nM; on EGFR A763_Y764insFHEA it was below 1 nM; on HER2 A775_G776insYVMA, 6 nM; in experiment [1], below 10 nM; in experiment [2], below 10 nM; in experiment [3], below 10 nM. In the experiment with Ba/F3 HER2 G776delinsVC, the IC50 was below 10 nM.

With `C=CC(=O)Nc1cc(Nc2ncc(Cl)c(Nc3cccc4c3N(S(C)(=O)=O)CCC4)n2)c(OC)cc1N(C)CCNC` [Example 48, N-(5-((5-chloro-4-((1-(methylsulfonyl)-1,2,3,4-tetrahydroquinolin-8-yl)amino)pyrimidin-2-yl)amino)-4-methoxy-2-(methyl(2-(methylamino)ethyl)amino)phenyl)acrylamide], the 50% inhibitory concentration (IC50) was 3 nM at EGFR del19; 7 nM at EGFR A763_Y764insFHEA; 20 nM at HER2 A775_G776insYVMA; 50 to 100 nM in experiment [1]; 50 to 100 nM in experiment [2]; 50 to 100 nM in experiment [3]. The IC50 in the experiment with Ba/F3 HER2 G776delinsVC was below 10 nM.

On to `C=CC(=O)Nc1cc(Nc2ncc(Cl)c(Nc3cccc4c3N(S(C)(=O)=O)CCC4)n2)c(OC)cc1N1CCC(N(C)C)CC1` [Example 49, N-(5-((5-chloro-4-((1-(methylsulfonyl)-1,2,3,4-tetrahydroquinolin-8-yl)amino)pyrimidin-2-yl)amino)-2-(4-(dimethylamino)piperidin-1-yl)-4-methoxyphenyl)acrylamide], for which the 50% inhibitory concentration (IC50) is 0.1 nM on EGFR del19; 10 nM on EGFR A763_Y764insFHEA; 60 nM at HER2 A775_G776insYVMA; 50 to 100 nM in experiment [1]; 50 to 100 nM in experiment [2]; 50 to 100 nM in experiment [3]. In the experiment on Ba/F3 HER2 G776delinsVC, this molecule yielded a concentration for half-maximal inhibition (IC50) below 10 nM.

As to `C=CC(=O)Nc1cc(Nc2ncc(Cl)c(Nc3cccc4c3N(S(C)(=O)=O)CCC4)n2)c(OC)cc1N1CCC(N2CCN(C)CC2)CC1` [Example 50, N-(5-((5-chloro-4-((1-(methylsulfonyl)-1,2,3,4-tetrahydroquinolin-8-yl)amino)pyrimidin-2-yl)amino)-4-methoxy-2-(4-(4-methylpiperazin-1-yl)piperidin-1-yl)phenyl)acrylamide], the half-inhibitory concentration (IC50) is below 1 nM at EGFR del19; 3 nM at EGFR A763_Y764insFHEA; 60 nM on HER2 A775_G776insYVMA; 50 to 100 nM in experiment [1]; 50 to 100 nM in experiment [2]; 50 to 100 nM in experiment [3]. Further, in the experiment on Ba/F3 HER2 G776delinsVC, the IC50 was below 10 nM.
